{"source": "patent US9556205B2", "about": "“Fungicide N-[(trisubstitutedsilyl)methyl]-carboxamide derivatives” (BAYER INTELLECTUAL PROPERTY GMBH, priority 2010, dated 2017)", "key": {"[1]": {"assay": "log P by HPLC on reversed-phase column (C18), EEC Directive 79/831 Annex V.A8", "assay_type": "physicochemical", "conditions": "40° C., 0.1% aqueous formic acid and acetonitrile, linear gradient 10% to 90% acetonitrile", "procedure": "In table 1, the log P values were determined in accordance with EEC Directive 79/831 Annex V.A8 by HPLC (High Performance Liquid Chromatography) on a reversed-phase column (C18), using the method described below:\nTemperature: 40° C.; Mobile phases: 0.1% aqueous formic acid and acetonitrile; linear gradient from 10% acetonitrile to 90% acetonitrile.\nCalibration was carried out using unbranched alkan-2-ones (comprising 3 to 16 carbon atoms) with known log P values (determination of the log P values by the retention times using linear interpolation between two successive alkanones). lambda-max-values were determined using UV-spectra from 200 nm to 400 nm and the peak values of the chromatographic signals."}, "Puccinia recondita [2]": {"test_system": "Puccinia recondita", "assay": "In vivo test on Puccinia recondita (wheat brown rust), Example I", "conditions": "wheat (Scipion variety), 500 ppm of active ingredient, grading 10 days after contamination"}, "[3]": {"test_system": "Aflatoxins production by Aspergillus parasiticus", "assay_type": "cell-based"}, "Aspergillus parasiticus": {"test_system": "Aspergillus parasiticus", "assay_type": "cell-based", "conditions": "7 days at 20° C., OD620nm"}, "Phakopsora pachyrhizi": {"test_system": "Phakopsora pachyrhizi", "assay": "In vivo protective test on Phakopsora pachyrhizi (soybean rust)", "conditions": "250 ppm of active ingredient, evaluated 11 days after inoculation", "procedure": "Solvent: 28.5 parts by weight of acetone\nEmulsifier: 1.5 parts by weight of polyoxyethylene alkyl phenyl ether\n(§1) To produce a suitable preparation of active compound, 1 part by weight of active compound is mixed with the stated amounts of solvent and emulsifier, and the concentrate is diluted with water to the desired concentration.\nTo test for protective activity, young plants are sprayed with the preparation of active compound at the stated rate of application. One day after spraying, the plants are inoculated with an aqueous spore suspension of the causal agent of soybean rust (Phakopsora pachyrhizi). The plants are then placed in a greenhouse at approximately 20° C. and a relative atmospheric humidity of approximately 80%.\nThe test is evaluated 11 days after the inoculation. 0% means an efficacy which corresponds to that of the control, while an efficacy of 100% means that no disease is observed.\nUnder these conditions, good (at least 80%) to total protection is observed at a dose of 250 ppm of active ingredient with the following compounds from table G: […]"}, "Septoria tritici": {"test_system": "Septoria tritici", "assay": "In vivo preventive test on Septoria tritici (wheat)", "conditions": "500 ppm of active ingredient, evaluated 21 days after inoculation", "procedure": "Solvent: 49 parts by weight of N,N-dimethylacetamide Emulsifier: 1 part by weight of alkylaryl polyglycol ether To produce a suitable preparation of active compound, 1 part by weight of active compound or active compound combination is mixed with the stated amounts of solvent and emulsifier, and the concentrate is diluted with water to the desired concentration. To test for preventive activity, young plants are sprayed with the preparation of active compound or active compound combination at the stated rate of application. After the spray coating has dried on, the plants are sprayed with a spore suspension of Septoria tritici. […] The plants are placed in a greenhouse at a temperature of approximately 15° C. and a relative atmospheric humidity of approximately 80%."}, "Pyrenophora teres": {"test_system": "Pyrenophora teres", "assay": "In vivo preventive test on Pyrenophora teres (barley), Example F", "conditions": "for Efficacy: 500 ppm of active ingredient, evaluated 7-9 days after inoculation; for disease control: 500 ppm, comparison with prior-art compound", "procedure": "(§2) Solvent: 49 parts by weight of N,N-dimethylformamide Emulsifier: 1 part by weight of alkylaryl polyglycol ether To produce a suitable preparation of active compound, 1 part by weight of active compound is mixed with the stated amounts of solvent and emulsifier, and the concentrate is diluted with water to the desired concentration. To test for preventive activity, young plants are sprayed with the preparation of active compound at the stated rate of application. One day after this treatment, the plants are inoculated with an aqueous spore suspension of Pyrenophora teres. […] Then the plants are placed in a greenhouse at a temperature of approximately 20° C. and a relative atmospheric humidity of approximately 80%."}, "Alternaria solani": {"test_system": "Alternaria solani", "assay": "In vivo preventive test on Alternaria solani (tomato)", "conditions": "for Efficacy: 500 ppm of active ingredient, evaluated 7 days after inoculation; for disease control: 500 ppm, comparison with prior-art compound", "procedure": "as §2, with “Alkylarylpolyglycolether” for “alkylaryl polyglycol ether”, “Alternaria solani.” for “Pyrenophora teres.”, “an incubation cabinet” for “a greenhouse”, “at” for “at a temperature of”, “96%.” for “approximately 80%.”"}, "Venturia inaequalis": {"test_system": "Venturia inaequalis", "assay": "In vivo preventive test on Venturia inaequalis (apple scab)", "conditions": "100 ppm of active ingredient, evaluated 10 days after inoculation", "procedure": "Solvent: 24.5 parts by weight of acetone • 24.5 parts by weight of N,N-dimethylacetamide Emulsifier: 1 part by weight of alkylaryl polyglycol ether To produce a suitable preparation of active compound, 1 part by weight of active compound is mixed with the stated amounts of solvent and emulsifier, and the concentrate is diluted with water to the desired concentration. To test for protective activity, young plants are sprayed with the preparation of active compound at the stated rate of application. […] The plants are then placed in a greenhouse at approximately 21° C. and a relative atmospheric humidity of approximately 90%."}, "Leptosphaeria nodorum": {"test_system": "Leptosphaeria nodorum", "assay": "In vivo preventive test on Leptosphaeria nodorum (wheat)", "conditions": "500 ppm of active ingredient, evaluated 8 days after inoculation", "procedure": "Solvent: 49 parts by weight of N,N-dimethylacetamide Emulsifier: 1 part by weight of alkylaryl polyglycol ether To produce a suitable preparation of active compound, 1 part by weight of active compound or the compound combination is mixed with the stated amounts of solvent and emulsifier, and the concentrate is diluted with water to the desired concentration. To test for protective activity, young plants are sprayed with a preparation of active compound or active compound combination at the stated rate of application. After the spray coating has dried on, the plants are sprayed with a spore suspension of Leptosphaeria nodorum. […] The plants are placed in a greenhouse at a temperature of approximately 15° C. and a relative atmospheric humidity of approximately 80%."}, "Botrytis cinerea": {"test_system": "Botrytis cinerea", "assay": "In vivo preventive test on Botrytis cinerea (beans)", "conditions": "500 ppm of active ingredient, lesion size 2 days after inoculation", "procedure": "Solvent: 24.5 parts by weight of acetone\n• 24.5 parts by weight of N,N-dimethylacetamide Emulsifier: 1 part by weight of alkylaryl polyglycol ether\nas §1\nTo test for protective activity, young plants are sprayed with the preparation of active compound. After the spray coating has dried on, 2 small pieces of agar covered with growth of Botrytis cinerea are placed on each leaf. The inoculated plants are placed in a darkened chamber at 20° C. and a relative atmospheric humidity of 100%.\n2 days after the inoculation, the size of the lesions on the leaves is evaluated. 0% means an efficacy which corresponds to that of the control, while an efficacy of 100% means that no disease is observed. Under these conditions, excellent (at least 95%) to total protection is observed at a dose of 500 ppm of active ingredient with the following compounds from table C: […]"}, "Puccinia recondita [4]": {"test_system": "Puccinia recondita", "assay": "In vivo preventive test on Puccinia recondita (wheat), Example H", "conditions": "500 ppm, evaluated 7-9 days after inoculation", "procedure": "as §2, with “N,N-dimethylacetamide” for “N,N-dimethylformamide”, “Puccinia recondita.” for “Pyrenophora teres.”"}}}
{"smiles": "CCc1nn(C)c(F)c1C(=O)N(C[Si](C)(C)c1ccccc1)C1CC1", "note": "[Example 7]", "values": [{"measurement": "logP", "setting": "[1]", "value": 3.64}, {"measurement": "protection", "setting": "Puccinia recondita [2]", "value": "at least 70%"}]}
{"smiles": "Cn1nc(C(F)F)c(C(=O)N(C[Si](C)(C)c2ccccc2Cl)C2CC2)c1F", "note": "[Example 18]", "values": [{"measurement": "logP", "setting": "[1]", "value": 4.13}, {"measurement": "% Inhibition of Aflatoxin at 50 μM", "setting": "[3]", "value": 100, "unit": "%"}, {"measurement": "% Inhibition of fungal growth at 50 μM", "setting": "Aspergillus parasiticus", "value": 100, "unit": "%"}, {"measurement": "Efficacy", "setting": "Phakopsora pachyrhizi", "value": 80, "unit": "%"}, {"measurement": "Efficacy", "setting": "Septoria tritici", "value": 100, "unit": "%"}, {"measurement": "Efficacy", "setting": "Pyrenophora teres", "value": 100, "unit": "%"}, {"measurement": "Efficacy", "setting": "Alternaria solani", "value": 100, "unit": "%"}, {"measurement": "Efficacy", "setting": "Venturia inaequalis", "value": 99, "unit": "%"}, {"measurement": "Efficacy", "setting": "Leptosphaeria nodorum", "value": 100, "unit": "%"}]}
{"smiles": "Cn1nc(C(F)F)c(C(=O)N(C[Si](C)(C)c2cc(Cl)cc(Cl)c2)C2CC2)c1F", "note": "[Example 52]", "values": [{"measurement": "logP", "setting": "[1]", "value": 4.78}, {"measurement": "% Inhibition of Aflatoxin at 50 μM", "setting": "[3]", "value": 100, "unit": "%"}, {"measurement": "% Inhibition of fungal growth at 50 μM", "setting": "Aspergillus parasiticus", "value": 100, "unit": "%"}, {"measurement": "Efficacy", "setting": "Phakopsora pachyrhizi", "value": 99, "unit": "%"}, {"measurement": "Efficacy", "setting": "Septoria tritici", "value": 100, "unit": "%"}, {"measurement": "Efficacy", "setting": "Pyrenophora teres", "value": 100, "unit": "%"}, {"measurement": "Efficacy", "setting": "Alternaria solani", "value": 100, "unit": "%"}, {"measurement": "Efficacy", "setting": "Botrytis cinerea", "value": 100, "unit": "%"}, {"measurement": "Efficacy", "setting": "Venturia inaequalis", "value": 100, "unit": "%"}, {"measurement": "Efficacy", "setting": "Leptosphaeria nodorum", "value": 100, "unit": "%"}]}
{"smiles": "C[Si](C)(CN(C(=O)c1ccco1)C1CCCCC1)c1ccccc1", "note": "[N-cyclohexyl-N-{[dimethyl(phenyl)silyl]methyl}-2-furamide, reference compound]", "values": [{"measurement": "disease control", "setting": "Pyrenophora teres", "value": 0, "unit": "%"}, {"measurement": "disease control", "setting": "Alternaria solani", "value": 0, "unit": "%"}, {"measurement": "disease control", "setting": "Puccinia recondita [4]", "value": 10, "unit": "%"}]}
{"smiles": "Cn1nc(C(F)F)c(C(=O)N(C[Si](C)(C)c2ccc(Cl)cc2Cl)C2CC2)c1F", "note": "[Example 38]", "values": [{"measurement": "logP", "setting": "[1]", "value": 4.78}, {"measurement": "% Inhibition of Aflatoxin at 50 μM", "setting": "[3]", "value": 100, "unit": "%"}, {"measurement": "% Inhibition of fungal growth at 50 μM", "setting": "Aspergillus parasiticus", "value": 100, "unit": "%"}, {"measurement": "Efficacy", "setting": "Phakopsora pachyrhizi", "value": 85, "unit": "%"}, {"measurement": "Efficacy", "setting": "Septoria tritici", "value": 100, "unit": "%"}, {"measurement": "Efficacy", "setting": "Pyrenophora teres", "value": 100, "unit": "%"}, {"measurement": "Efficacy", "setting": "Alternaria solani", "value": 94, "unit": "%"}, {"measurement": "Efficacy", "setting": "Botrytis cinerea", "value": 95, "unit": "%"}, {"measurement": "Efficacy", "setting": "Venturia inaequalis", "value": 100, "unit": "%"}, {"measurement": "Efficacy", "setting": "Leptosphaeria nodorum", "value": 100, "unit": "%"}]}
{"smiles": "Cn1nc(C(F)F)c(C(=O)N(C[Si](C)(C)c2cccc(Cl)c2)C2CC2)c1F", "note": "[Example 31]", "values": [{"measurement": "logP", "setting": "[1]", "value": 4.18}, {"measurement": "% Inhibition of Aflatoxin at 50 μM", "setting": "[3]", "value": 100, "unit": "%"}, {"measurement": "% Inhibition of fungal growth at 50 μM", "setting": "Aspergillus parasiticus", "value": 100, "unit": "%"}, {"measurement": "Efficacy", "setting": "Phakopsora pachyrhizi", "value": 100, "unit": "%"}, {"measurement": "Efficacy", "setting": "Septoria tritici", "value": 100, "unit": "%"}, {"measurement": "Efficacy", "setting": "Pyrenophora teres", "value": 100, "unit": "%"}, {"measurement": "Efficacy", "setting": "Alternaria solani", "value": 100, "unit": "%"}, {"measurement": "Efficacy", "setting": "Botrytis cinerea", "value": 95, "unit": "%"}, {"measurement": "Efficacy", "setting": "Venturia inaequalis", "value": 100, "unit": "%"}, {"measurement": "Efficacy", "setting": "Leptosphaeria nodorum", "value": 100, "unit": "%"}]}
{"smiles": "Cn1nc(C(F)F)c(C(=O)N(C[Si](C)(C)c2ccccc2)C2CCCCC2)c1F", "note": "[Example 11]", "values": [{"measurement": "logP", "setting": "[1]", "value": 4.86}, {"measurement": "Efficacy", "setting": "Pyrenophora teres", "value": 70, "unit": "%"}, {"measurement": "disease control", "setting": "Pyrenophora teres", "value": 70, "unit": "%"}, {"measurement": "Efficacy", "setting": "Alternaria solani", "value": 90, "unit": "%"}, {"measurement": "disease control", "setting": "Alternaria solani", "value": 90, "unit": "%"}, {"measurement": "disease control", "setting": "Puccinia recondita [4]", "value": 80, "unit": "%"}]}
{"smiles": "Cc1cc(C(=O)N(C[Si](C)(C)c2ccccc2)C2CCCCC2)c(C)o1", "note": "[Example 12]", "values": [{"measurement": "logP", "setting": "[1]", "value": 5.62}, {"measurement": "Efficacy", "setting": "Pyrenophora teres", "value": 70, "unit": "%"}, {"measurement": "disease control", "setting": "Pyrenophora teres", "value": 70, "unit": "%"}, {"measurement": "Efficacy", "setting": "Alternaria solani", "value": 80, "unit": "%"}, {"measurement": "disease control", "setting": "Alternaria solani", "value": 80, "unit": "%"}, {"measurement": "disease control", "setting": "Puccinia recondita [4]", "value": 40, "unit": "%"}]}
